In US20210315992A1, “ADJUVANT EFFECT OF THE TLR1/2 AGONIST DIPROVOCIM SYNERGIZES WITH CHECKPOINT-INHIBITING ANTIBODIES TO ELIMINATE DISEASE” (The Board of Regents of the University of Texas System, priority 2018, published 2021):
Entries after “also recorded” stand apart in the source; their conditions may differ.

Columns and labels:
human PBMC = experiment: TNF production by human PBMC (ELISA); assay type: cell-based; conditions: 24 hours
Protocol: For murine BMDCs, bone morrow cells were cultured in Petri dishes in 10 ml DMEM cell culture medium containing 10 ng/ml of murine GM-CSF (R&D Systems). On day 3 of culture, this was replaced with fresh GM-CSF medium. Loosely adherent cells were transferred to a fresh Petri dish and cultured for an additional 4 d. Human PBMC were purchased from Stemcell Technologies. THP-1 (ATCC) cells were differentiated by treatment with 100 nM PMA (Sigma) in RPMI cell culture medium [RPMI containing 10% vol/vol FBS (Gemini Bio Products), 1% penicillin and streptomycin (Life Technologies)] for 24 hours. After that, cells were washed with PBS and cultured in fresh RPMI cell culture medium for 24 hours before use in studies.
[…] Mouse TNF, IL-6, or IFN-β, or human TNF in the supernatants were measured by ELISA kits according to the manufacturer's instructions (eBioscience and PBL Assay Science). Pretreatment with 20 μg/ml anti-TLR1, anti-TLR2 or isotype control antibody (eBioscience) was for 1 hour. Unless otherwise indicated, mouse cells were from wild type C57BL/6J mice.

C57BL/6J mice = experiment: Immunization with OVA and measurement of antibody response; assay type: in vivo, mouse
Protocol: EndoFit ovalbumin (OVA) with 98% purity minimum (SDS-PAGE) and endotoxin levels <1 EU/mg was purchased from Invivogen. Mice (4 mice per group) were immunized i.m. with 100 μg OVA mixed with vehicle (DMSO:Tween 80:saline=1:1:8), with 10 mg/kg Diprovocim, or with 2 mg/kg Alum (Alhydrogel adjuvant 2%, Invivogen). After 14 days, serum titers of OVA-specific IgG, IgG1, or IgG2b (SouthernBiotech) were measured by ELISA.

human TLR1/TLR2 = biological target: T1, human TLR1/TLR2 (Homo sapiens, UniProt O60603+Q15399); experiment: TNF in THP-1 cells pretreated with anti-TLR1 or anti-TLR2 antibody; assay type: cell-based; conditions: 250 pM, 4 hours; antibody 20 μg/ml, 1 hour pretreatment
T1 construct: TNF in the supernatants of human THP-1 cells pretreated with control antibody, anti-TLR1 (20 μg/ml), or anti-TLR2 (20 μg/ml); host or cells: THP-1 cells differentiated with 100 nM PMA
T1 sequence (Q15399 25-786): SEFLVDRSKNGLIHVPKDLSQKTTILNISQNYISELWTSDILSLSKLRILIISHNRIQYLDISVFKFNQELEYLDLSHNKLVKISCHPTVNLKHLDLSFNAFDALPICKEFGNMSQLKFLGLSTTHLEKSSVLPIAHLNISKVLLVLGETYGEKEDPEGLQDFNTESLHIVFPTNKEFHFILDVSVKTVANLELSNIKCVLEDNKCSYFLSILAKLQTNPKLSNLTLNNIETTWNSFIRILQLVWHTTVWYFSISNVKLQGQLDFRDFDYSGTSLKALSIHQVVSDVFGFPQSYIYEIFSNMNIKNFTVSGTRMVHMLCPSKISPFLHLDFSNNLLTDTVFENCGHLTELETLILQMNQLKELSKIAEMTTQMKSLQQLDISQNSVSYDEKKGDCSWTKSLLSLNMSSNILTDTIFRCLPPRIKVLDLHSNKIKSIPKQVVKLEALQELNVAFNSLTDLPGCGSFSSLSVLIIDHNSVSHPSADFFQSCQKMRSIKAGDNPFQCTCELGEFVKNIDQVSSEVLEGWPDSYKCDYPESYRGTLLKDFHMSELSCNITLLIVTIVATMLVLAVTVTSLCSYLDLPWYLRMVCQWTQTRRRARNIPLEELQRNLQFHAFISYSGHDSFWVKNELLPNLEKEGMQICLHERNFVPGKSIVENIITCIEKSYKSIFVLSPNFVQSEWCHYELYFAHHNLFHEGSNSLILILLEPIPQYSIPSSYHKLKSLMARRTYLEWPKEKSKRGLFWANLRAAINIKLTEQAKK
T1 sequence (O60603 21-784): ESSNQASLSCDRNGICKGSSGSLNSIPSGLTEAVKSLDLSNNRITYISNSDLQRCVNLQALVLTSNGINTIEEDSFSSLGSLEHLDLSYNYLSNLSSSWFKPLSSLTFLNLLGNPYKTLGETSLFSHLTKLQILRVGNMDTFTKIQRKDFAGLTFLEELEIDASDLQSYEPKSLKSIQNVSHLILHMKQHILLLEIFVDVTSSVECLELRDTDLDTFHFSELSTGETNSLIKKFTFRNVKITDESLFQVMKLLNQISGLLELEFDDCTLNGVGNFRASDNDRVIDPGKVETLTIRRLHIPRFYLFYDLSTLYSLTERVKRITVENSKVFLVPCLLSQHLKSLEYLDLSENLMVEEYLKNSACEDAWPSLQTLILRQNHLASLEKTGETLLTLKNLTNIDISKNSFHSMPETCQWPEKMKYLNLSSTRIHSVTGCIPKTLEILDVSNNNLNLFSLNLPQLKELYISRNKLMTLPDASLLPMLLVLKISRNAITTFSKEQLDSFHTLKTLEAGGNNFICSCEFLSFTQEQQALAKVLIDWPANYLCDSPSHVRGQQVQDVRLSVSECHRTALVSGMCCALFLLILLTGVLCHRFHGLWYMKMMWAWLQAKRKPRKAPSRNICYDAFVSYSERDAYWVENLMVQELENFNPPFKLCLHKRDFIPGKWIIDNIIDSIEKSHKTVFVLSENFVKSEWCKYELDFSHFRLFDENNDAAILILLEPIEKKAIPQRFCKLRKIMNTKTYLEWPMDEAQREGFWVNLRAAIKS
Protocol: Cells were seeded onto 96-well plates at 1×10^5 cells per well and stimulated with a Diprovocim (dissolved in DMSO, and final DMSO concentrations (0.2%) were kept constant in all experiments) for 4 h. Mouse TNF, IL-6, or IFN-β, or human TNF in the supernatants were measured by ELISA kits according to the manufacturer's instructions (eBioscience and PBL Assay Science). Pretreatment with 20 μg/ml anti-TLR1, anti-TLR2 or isotype control antibody (eBioscience) was for 1 hour. Unless otherwise indicated, mouse cells were from wild type C57BL/6J mice.

O=C(N[C@H]1C[C@@H]1c1ccccc1)[C@@H]1CN(C(=O)c2ccc(C(=O)N3C[C@@H](C(=O)N[C@H]4C[C@@H]4c4ccccc4)[C@H](C(=O)N[C@H]4C[C@@H]4c4ccccc4)C3)cc2)C[C@H]1C(=O)N[C@H]1C[C@@H]1c1ccccc1 [Diprovocim-1, (3S,3'S,4S,4'S)-1,1′-Terephthaloylbis(N^3,N^4-bis((1S,2R)-2-phenylcyclo-propyl)pyrrolidine-3,4-dicarboxamide)] was tested, and the “activation of TNF production compared with Pam3CSK4” value (human PBMC) was “more potent and efficacious; also recorded: more potent than Pam3CSK4”, the EC50 (human PBMC; read-out: EC50, dose-dependent TNF production) was 0.875 nM and the “adjuvant activity in antigen-specific antibody production in TLR2-deficient mice” value (C57BL/6J mice; Tlr2−/− mice) was “abrogated”. The “serum OVA-specific IgG compared to OVA plus vehicle” value (C57BL/6J mice; wild type mice, i.m. with 100 μg OVA, Diprovocim 10 mg/kg or alum 2 mg/kg, day 14) was “highly elevated” and the “effect on THP-1 cells (TNF) after TLR1 or TLR2 antibody” value (human TLR1/TLR2) was “significantly reduced”.
